In experiment [1] the test system is Balb/c 3T3 cells. The experiment is described as follows: NRU assay (lysosomal activity), 72 h exposure. Type of experiment: cell-based, murine. The note with it: Balb/c 3T3, NRU, mean ± SD, n = 3. As to the method: (§1) The human hepatoma (HepG2) and colorectal adenocarcinoma (Caco-2) cells were purchased from the American Type Culture Collection: ATCC HB-8065 and ATCC HTB-37, respectively. These cells were cultured in Minimum Essential Medium Eagle (MEME) (ATCC). The murine fibroblasts cell line (Balb/c 3T3 clone A31) (gift from the Department of Swine Diseases of the National Veterinary Research Institute in Pulawy) was cultured in Dulbecco’s Modified Eagle Medium (DMEM) (ATCC). The media were supplemented with 10% BCS (Balb/c 3T3), 10% FBS (HepG2), 20% FBS (Caco-2), 1% L-glutamine, 1% antibiotic solution. The cells were maintained in 75 cm^2 cell culture flasks (NUNC) in a humidified incubator at 37 °C in an atmosphere of 5% CO2. The medium was refreshed every two or three days, and the cells were trypsinized by 0.25% trypsin–0.02% EDTA after reaching 70–80% confluence. Single cell suspensions were prepared and adjusted to a density of 2 × 10^5 cell/mL^−1 (HepG2), 1 × 10^5 cell/mL^−1 (Caco-2) and 5 × 10^4 cell/mL^−1 (Balb/c 3T3). The cell suspension was transferred to 96-well plates (100 µL/well) and incubated for 24 h before the exposure to the studied compounds. Stock solutions of ligands and metal complexes were prepared in sterile water and diluted with culture medium to obtain a concentration range from 0.1 to 10 µM. The final concentration of sterile water was 0.1% in the medium. […] As a negative control, cultured cells were grown in the absence of studied compounds. Each concentration was tested in six replicates in three independent experiments. Cytotoxicity was assessed after 72 h of exposure of the cells to compounds. The medium was not changed during the incubation time.
This method is based on staining living cells with neutral red, which readily diffuses through the plasma membrane and accumulates in lysosomes. […] After 10 min of shaking, the absorbance of the dissolved NR was measured using a Synergy HTX multi-mode reader (BioTek® Instruments Inc., Winooski, VT, USA) at 540 nm using a blank as a reference. Cytotoxicity was expressed as a percentage of the negative control. […]

The subject of experiment [2] is Balb/c 3T3 cells. The experiment is described as follows: LDH leakage assay (membrane integrity), 72 h exposure. The format is cell-based, murine. The following applies: Balb/c 3T3, LDH, mean ± SD, n = 3. As to the method:
as §1
(§2) The integrity of the plasma membrane was assessed through the test of lactate dehydrogenase (LDH) release, which was monitored using the commercially available Cytotoxicity Detection Kit (LDH) (Roche Diagnostics, Warsaw, Poland). […] The absorbance was measured at 492 nm in a microplate reader Synergy HTX multi-mode reader (BioTek® Instruments Inc., Winooski, VT, USA) using a blank as a reference. […]
On the technique in general: LDH in the medium is a marker of cell lysis.

In experiment [3] the test system is Balb/c 3T3 cells. Briefly: MTT assay (mitochondrial activity), 72 h exposure. Type of experiment: cell-based, murine. The following applies: Balb/c 3T3, MTT, mean ± SD, n = 3. As to the method:
as §1
The metabolic activity of living cells was assessed by the measurement of the activity of dehydrogenases. […] The plate was shaken for 15 min at room temperature and transferred to a microplate reader Synergy HTX multi-mode reader (BioTek® Instruments Inc., Winooski, VT, USA) to measure the absorbance at 570 nm, using a blank as a reference. Cytotoxicity was expressed as a percentage of the negative control. […]
For orientation: Formazan colour is commonly taken as a measure of viable cells.

In experiment [4] the test system is Balb/c 3T3 cells. The experiment is described as follows: TPC assay (total protein content), 72 h exposure. The note with it: Balb/c 3T3, TPC, mean ± SD, n = 3. The format is cell-based, murine. As to the method:
as §1
This assay is based upon staining the total cellular protein (proliferation). […] The absorbance was measured at 595 nm in a microplate reader Synergy HTX multi-mode reader (BioTek® Instruments Inc., Winooski, VT, USA) using a blank as a reference. Cytotoxicity was expressed as a percentage of the negative control. […]

In another experiment the test system is HepG2 cells. The experiment is described as follows: LDH leakage assay (membrane integrity), 72 h exposure. Type of experiment: cell-based, human. The note with it: mean ± SD, n = 3. As to the method:
as §1, §2

With `N.N.[Cl][Pt][Cl]` [Cisplatin, cisplatin], the IC50 in the experiment on Balb/c 3T3 cells [1] was greater than 10 µM; with Balb/c 3T3 cells [2], greater than 10 µM; in the experiment on Balb/c 3T3 cells [3] it was greater than 10 µM; in the experiment on Balb/c 3T3 cells [4] it was greater than 10 µM; with HepG2 cells, less than 0.1 µM.

Broadly, the IC50 is the concentration at which inhibition is half-maximal.

Source of the values: article PMC8869984, “Multifunctional Silver(I) Complexes with Metronidazole Drug Reveal Antimicrobial Properties and Antitumor Activity against Human Hepatoma and Colorectal Adenocarcinoma Cells” (Cancers, 2022).
